In the test the target is 11β-HSD1 (Homo sapiens, UniProt P28845). Kind of test: biochemical. The following applies: for IC50: IC50 Range, Biological Test Example 1, microsomes from CHO cells overexpressing human 11β-HSD1; for inhibition at 0.1111 µM: read-out: Average % inhibition at 111.1 nM, Biological Test Example 1, 111.1 nM compound.
[1] abbreviates: read-out: Average % inhibition at 100 nM, Biological Test Example 1, 100 nM.
[2] abbreviates: read-out: Average % inhibition at 100 nM, Biological Test Example 1, 100 nM compound.

Each structure is given as a SMILES string. Read-outs that look alike come from different tables or passages of the source. Bounds are passed on as bounds.

11β-HSD1, sequence (P28845 whole entry): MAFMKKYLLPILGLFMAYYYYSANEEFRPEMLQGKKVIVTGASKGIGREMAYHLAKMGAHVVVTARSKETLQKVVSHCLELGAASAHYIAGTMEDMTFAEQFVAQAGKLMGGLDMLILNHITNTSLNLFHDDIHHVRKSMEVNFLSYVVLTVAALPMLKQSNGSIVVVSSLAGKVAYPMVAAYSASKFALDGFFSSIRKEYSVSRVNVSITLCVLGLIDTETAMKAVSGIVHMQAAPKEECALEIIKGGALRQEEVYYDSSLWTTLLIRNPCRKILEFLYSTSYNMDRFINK

As usually defined, the IC50 is the concentration needed to halve the response being measured. Higher therefore signals weaker potency. Usually inhibition stands for the relative decrease from the control value, in per cent. On to `Cc1ccc([C@H](C)N2CC[C@](CC(C)(C)O)(c3ccccc3)OC2=O)cc1` [EXAMPLE 422, (S)-6-(2-hydroxy-2-methylpropyl)-6-phenyl-3-((S)-1-p-tolylethyl)-1,3-oxazinan-2-one], for which the IC50 is less than 100 nM. Besides, the inhibition at 0.1 µM under setting [1] came out at 100%.
The corresponding values for `O=C1OC(CCCO)(c2ccc(F)cc2)CCN1Cc1c(Cl)cccc1Cl` (centres unmarked) [EXAMPLE 347, 3-(2,6-dichlorobenzyl)-6-(4-fluorophenyl)-6-(3-hydroxypropyl)-1,3-oxazinan-2-one] are less than 100 nM and 96%.
Taken in the same sequence, the figures for `C[C@@H](c1ccc(C(F)(F)F)cc1)N1CC[C@](CCO)(c2ccccc2)OC1=O` [EXAMPLE 399, (S)-6-(2-hydroxyethyl)-6-phenyl-3-((S)-1-(4-(trifluoromethyl)phenyl)ethyl)-1,3-oxazinan-2-one] were less than 100 nM and 97.9%.
Regarding `C[C@@H](c1ccc(Cl)cc1)N1CC[C@](CCCO)(c2ccc(F)cc2)OC1=O` [EXAMPLE 202, (R)-3-((1S)-1-(4-chlorophenyl)ethyl)-6-(4-fluorophenyl)-6-(3-hydroxypropyl)-1,3-oxazinan-2-one], the IC50 was less than 100 nM. In addition, under setting [2], the inhibition at 0.1 µM stood at 95.9%.
Taken in the same sequence, the figures for `C[C@@H](c1ccc(-c2ccc(F)cc2)cc1)N1CC[C@](CC(O)CO)(c2ccccc2)OC1=O` (single isomer, unassigned) [EXAMPLE 168 Isomer 1] were less than 100 nM and 97.2%.
For the compound `CC[C@@H](c1ccc(Br)cc1)N1CC[C@](CCCO)(c2ccc(F)cc2)OC1=O` [EXAMPLE 241, (R)-3-((S)-1-(4-bromophenyl)propyl)-6-(4-fluorophenyl)-6-(3-hydroxypropyl)-1,3-oxazinan-2-one], the IC50 is less than 100 nM. Also, under setting [2], the inhibition at 0.1 µM turned out to be 96.7%.
Regarding `CC(O)C[C@@]1(c2cccs2)CCN([C@@H](C)c2ccc(-c3ccc(F)cc3)cc2)C(=O)O1` (single isomer, unassigned) [EXAMPLE 167 Isomer 1], the IC50 was less than 100 nM and the inhibition at 0.1111 µM came to 79%. Under setting [2], the inhibition at 0.1 µM was 73.7%.
On to `O=C(O)CC1(c2ccccc2)CCN(c2cccc(-c3ccc(F)cc3F)c2)C(=O)O1` (centres unmarked) [EXAMPLE 70, 2-(3-(2′,4′-difluorobiphenyl-3-yl)-2-oxo-6-phenyl-1,3-oxazinan-6-yl)acetic acid], for which the IC50 was in the range of 100 to 1000 nM and the inhibition at 0.1111 µM was determined as 9.3%.
On to `C[C@@H](c1cccc(F)c1)N1CC[C@](CCC(N)=O)(c2ccc(F)cc2)OC1=O` [EXAMPLE 288, 3-((R)-6-(4-fluorophenyl)-3-((S)-1-(3-fluorophenyl)ethyl)-2-oxo-1,3-oxazinan-6-yl)propanamide], for which the IC50 is less than 100 nM. Besides, the inhibition at 0.1 µM under setting [2] worked out at 72.4%.
On to `C=CC[C@]1(c2ccc(F)cc2)CCN([C@@H](C)c2ccc(C(N)=O)cc2)C(=O)O1` [EXAMPLE 153, 4-((S)-1-((R)-6-allyl-6-(4-fluorophenyl)-2-oxo-1,3-oxazinan-3-yl)ethyl)benzamide], for which the IC50 lay in the range of 100 to 1000 nM and the inhibition at 0.1111 µM amounted to 26.6%. In addition, the inhibition at 0.1 µM under setting [2] is 27%.
With `O=C1OC(CCO)(c2ccccc2)CCN1c1cccc(-c2c(Cl)cccc2Cl)c1` (centres unmarked) [EXAMPLE 69, 3-(2′,6′-dichlorobiphenyl-3-yl)-6-(2-hydroxyethyl)-6-phenyl-1,3-oxazinan-2-one], the IC50 was less than 100 nM and the inhibition at 0.1111 µM was found to be 94.8%. Besides, the inhibition at 0.1 µM under setting [2] was found to be 94.7%.
`C=CCC1(c2ccc(F)cc2)CCN([C@@H](C)c2ccc(Cl)cc2)C(=O)O1` (single isomer, unassigned) [EXAMPLE 196 Isomer 1] returned an IC50 of less than 100 nM. In addition, the inhibition at 0.1 µM under setting [2] was found to be 101%.
As for `CC(=O)NCc1cccc(-c2cccc(N3CCC(C)(c4ccccc4)OC3=O)c2)c1` (centres unmarked) [EXAMPLE 41, N-((3′-(6-methyl-2-oxo-6-phenyl-1,3-oxazinan-3-yl)biphenyl-3-yl)methyl)acetamide], the IC50 lay within 100 to 1000 nM and the inhibition at 0.1111 µM is 19.9%.
The corresponding values for `CC1(c2ccccc2)CCN(c2nc(-c3ccccc3)cs2)C(=O)O1` (centres unmarked) [EXAMPLE 121, 6-methyl-6-phenyl-3-(4-phenylthiazol-2-yl)-1,3-oxazinan-2-one] are 100 to 1000 nM and 34.2%.
The corresponding values for `Cc1ccc(C2(C)CCN([C@@H](C)c3ccccc3)C(=O)O2)cc1` (single isomer, unassigned) [EXAMPLE 88 Isomer 1] are 100 to 1000 nM and 74.4%.
In the case of `CN(C)S(=O)(=O)c1cccc(-c2cccc(N3CCC(C)(c4ccccc4)OC3=O)c2)c1` (centres unmarked) [EXAMPLE 14, N,N-dimethyl-3′-(6-methyl-2-oxo-6-phenyl-1,3-oxazinan-3-yl)biphenyl-3-sulfonamide], the IC50 is 100 to 1000 nM and the inhibition at 0.1111 µM came out at 21.9%.
Regarding `C[C@@H](c1ccc(-c2ccc(F)cc2)cc1)N1CC[C@@](CCO)(c2cccs2)OC1=O` (single isomer, unassigned) [EXAMPLE 218 Isomer 2], the IC50 was less than 100 nM. Besides, under setting [2], the inhibition at 0.1 µM was 60.3%.
In turn, `C[C@@H](c1ccc(Br)cc1)N1CC[C@](CCCNS(C)(=O)=O)(c2ccccc2)OC1=O` [EXAMPLE 394, N-(3-((R)-3-((S)-1-(4-bromophenyl)ethyl)-2-oxo-6-phenyl-1,3-oxazinan-6-yl)propyl)methanesulfonamide] returned an IC50 of less than 100 nM. Besides, the inhibition at 0.1 µM under setting [1] is 99.1%.
For `C[C@@H](c1ccc(C2CC2)cc1)N1CC[C@](CCCO)(c2ccc(F)cc2)OC1=O` [EXAMPLE 125, (R)-3-((S)-1-(4-cyclopropylphenyl)ethyl)-6-(4-fluorophenyl)-6-(3-hydroxypropyl)-1,3-oxazinan-2-one], the IC50 is less than 100 nM and the inhibition at 0.1111 µM was found to be 94%. Moreover, the inhibition at 0.1 µM under setting [2] came to 98.3%.
`Cc1nnc(C[C@]2(c3ccccc3)CCN([C@@H](C)c3ccc(Br)cc3)C(=O)O2)s1` [EXAMPLE 531, (S)-3-((S)-1-(4-bromophenyl)ethyl)-6-((5-methyl-1,3,4-thiadiazol-2-yl)methyl)-6-phenyl-1,3-oxazinan-2-one] registered an IC50 of less than 100 nM. Besides, the inhibition at 0.1 µM under setting [1] came to 73.5%.
The compound `CC[C@@H](c1ccc(Br)cc1)N1CC[C@](CC(O)CO)(c2ccccc2)OC1=O` (single isomer, unassigned) [EXAMPLE 239 Isomer 1] came in with an IC50 of less than 100 nM. Moreover, the inhibition at 0.1 µM under setting [2] worked out at 91.5%.
Take `C[C@@H](c1ccc(F)cc1)N1CC[C@](CCO)(c2ccc(F)cc2)OC1=O` [EXAMPLE 406, (S)-6-(4-fluorophenyl)-3-((S)-1-(4-fluorophenyl)ethyl)-6-(2-hydroxyethyl)-1,3-oxazinan-2-one]: the IC50 was less than 100 nM. Further, the inhibition at 0.1 µM under setting [1] is 86.4%.
With `C=CCC1(c2ccc(F)cc2)CCN([C@@H](C)c2ccc(C)cc2)C(=O)O1` (single isomer, unassigned) [EXAMPLE 189 Isomer 1], the IC50 was less than 100 nM. Also, the inhibition at 0.1 µM under setting [2] is 95.2%.
The compound `C[C@@H](c1cccc(C#N)c1)N1CC[C@](CCCOC(=O)C(F)(F)F)(c2ccc(F)cc2)OC1=O` [EXAMPLE 361, 3-((R)-3-((S)-1-(3-cyanophenyl)ethyl)-6-(4-fluorophenyl)-2-oxo-1,3-oxazinan-6-yl)propyl 2,2,2-trifluoroacetate] gave an IC50 of less than 100 nM. In addition, the inhibition at 0.1 µM under setting [1] was 67.4%.
For the compound `CC(O)C[C@]1(c2ccc(F)cc2)CCN([C@@H](C)c2ccc(Cl)cc2)C(=O)O1` (single isomer, unassigned) [EXAMPLE 203 Isomer 1], the IC50 is less than 100 nM. In addition, the inhibition at 0.1 µM under setting [2] was 88.6%.
Taken in the same sequence, the figures for `C[C@@H](c1ccc(C(F)(F)F)cc1)N1CC[C@](CCCO)(c2ccc(F)cc2)OC1=O` [EXAMPLE 294, (R)-6-(4-fluorophenyl)-6-(3-hydroxypropyl)-3-((S)-1-(4-(trifluoromethyl)phenyl)ethyl)-1,3-oxazinan-2-one] were less than 100 nM and 97.2%.
`C[C@@H](c1cccc(C(F)(F)F)c1)N1CC[C@](CCC(N)=O)(c2ccc(F)cc2)OC1=O` [EXAMPLE 299, 3-((R)-6-(4-fluorophenyl)-2-oxo-3-((S)-1-(3-(trifluoromethyl)phenyl)ethyl)-1,3-oxazinan-6-yl)propanamide] showed an IC50 of less than 100 nM. Further, the inhibition at 0.1 µM under setting [2] amounted to 71.7%.
The corresponding values for `C[C@@H](c1ccc(-c2ccc(F)cc2F)cc1)N1CC[C@](CCC(N)=O)(c2ccccc2)OC1=O` [EXAMPLE 250, 3-((R)-3-((S)-1-(2′,4′-difluorobiphenyl-4-yl)ethyl)-2-oxo-6-phenyl-1,3-oxazinan-6-yl)propanamide] are less than 100 nM and 97.1%.
For the compound `C[C@@H](c1cccc(Br)c1)N1CC[C@](CCC(C)(C)O)(c2ccc(F)cc2)OC1=O` [EXAMPLE 357, (R)-3-((S)-1-(3-bromophenyl)ethyl)-6-(4-fluorophenyl)-6-(3-hydroxy-3-methylbutyl)-1,3-oxazinan-2-one], the IC50 was less than 100 nM. The inhibition at 0.1 µM under setting [1] was 60.7%.
`O=C1OC(CCCO)(c2ccc(F)cc2)CCN1Cc1ccc(Cl)cc1Cl` (centres unmarked) [EXAMPLE 343, 3-(2,4-dichlorobenzyl)-6-(4-fluorophenyl)-6-(3-hydroxypropyl)-1,3-oxazinan-2-one] displayed an IC50 of less than 100 nM. Further, the inhibition at 0.1 µM (read-out: Average % inhibition at 100 nM) stood at 82.3%.
As to `C[C@@H](c1ccc(Br)cc1)N1CC[C@](CCC(C)(C)O)(c2ccc(F)cc2)OC1=O` [EXAMPLE 373, (R)-3-((S)-1-(4-bromophenyl)ethyl)-6-(4-fluorophenyl)-6-(3-hydroxy-3-methylbutyl)-1,3-oxazinan-2-one], the IC50 is less than 100 nM. The inhibition at 0.1 µM under setting [1] stood at 89.1%.
With `C=CC[C@]1(c2ccc(F)cc2)CCN([C@@H](C)c2ccc(-c3ccc(F)cc3F)cc2)C(=O)O1` (single isomer, unassigned) [EXAMPLE 111 Isomer 2], the IC50 was less than 100 nM and the inhibition at 0.1111 µM stood at 58.9%.

For the origin of these results see patent publication US8575156B2, “Cyclic inhibitors of 11β-hydroxysteroid dehydrogenase 1” (Vitae Pharmaceuticals, Inc., priority 2007, dated 2013).
